{"source": "paper PMC5464773", "about": "(eLife, 2017)", "key": {"[1]": {"system": "BCR-ABL-expressing B-lineage acute lymphoblastic leukemia cells dependent on Bcl-xL", "experiment": "BH3 profiling, mitochondrial depolarization (JC-1) in permeabilized cells", "format": "cell-based", "details": "BH3 profiling fits Bcl-xL, sigmoidal dose-response (variable slope), fit ambiguous", "experimental": "Cell line identities were confirmed by STR profiling.\nPeptides were titrated by serial dilution in MEB buffer (150 mM Mannitol, 10 mM HEPES-KOH pH 7.5, 50 mM KCl, 0.02 mM EGTA, 0.02 mM EDTA, 0.1% BSA and 5 mM Succinate) containing 20 μg/mL oligomycin, 50 μg/mL digitonin, 2 μM JC-1 and 10 mM 2-mercaptoethanol in 384-well plates. Controls for no depolarization (1% DMSO) and complete depolarization with the mitochondrial oxidative phosphorylation uncoupler FCCP (20 μM) were included for data normalization. […] 15 μL of cell suspension was added to each well containing 15 μL of treatment solution. […] To produce percent depolarization, the area under the resultant curve was calculated and normalized to the assay controls. Peptide titration curves were fit to sigmoidal dose-response curves using Graphpad PRISM seven to obtain EC50 values."}, "Bfl-1 [2]": {"target": "T1, Bfl-1 (Homo sapiens, UniProt Q16548)", "T1 construct": "c-myc", "T1 sequence (Q16548 1-175)": "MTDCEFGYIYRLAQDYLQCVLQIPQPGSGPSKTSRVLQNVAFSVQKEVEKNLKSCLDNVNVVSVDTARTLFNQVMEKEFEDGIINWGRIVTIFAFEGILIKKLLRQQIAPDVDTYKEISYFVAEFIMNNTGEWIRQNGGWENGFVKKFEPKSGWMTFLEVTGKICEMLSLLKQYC", "experiment": "Competition fluorescence polarization (anisotropy) with fluoresceinated BIM", "format": "binding", "details": "competition FP source data; for Ki: mean of three replicates", "experimental": "(§1) Plates were mixed at 23°C for 3 hr. Plates were read again at 24 to check equilibration. Experiments were done in at least triplicate."}, "Bfl-1 [3]": {"system": "Bfl-1", "experiment": "Competition fluorescence polarization (anisotropy) with fluoresceinated BIM", "format": "binding, human", "details": "ratio of Ki values from competition FP", "experimental": "as §1"}}, "data": [{"substance": "Ac-QWIREIAAGLRRFADILNAQVER-NH2 [FS3]", "values": [{"measurement": "Bottom (best-fit value)", "setting": "[1]; constraint Bottom < 5", "result": "~ 5"}, {"measurement": "Top (best-fit value)", "setting": "[1]; constraint Top > 78", "result": 97.17}, {"measurement": "HillSlope (best-fit value)", "setting": "[1]", "result": "~ 8.841"}, {"measurement": "LogEC50 (best-fit value)", "setting": "[1]; x = Log [Peptide] M", "result": "~ -4.964"}]}, {"substance": "Ac-QWVREIAAGLRLAADNVNAQLER-NH2 [FS1]", "values": [{"measurement": "Ki", "setting": "Bfl-1 [2]", "result": 14.9, "unit": "nM"}, {"measurement": "Ki (M) Bfl-1", "setting": "Bfl-1 [2]; replicate 1", "result": "1.51e-08", "unit": "M"}, {"measurement": "Ki (M) Bfl-1", "setting": "Bfl-1 [2]; replicate 2", "result": "1.72e-08", "unit": "M"}, {"measurement": "Ki (M) Bfl-1", "setting": "Bfl-1 [2]; replicate 3", "result": "1.22e-08", "unit": "M"}, {"measurement": "specificity for Bfl-1 relative to Bcl-xL, Bcl-2, Bcl-w and Mcl-1", "setting": "Bfl-1 [3]", "result": "at least 150 fold"}]}, {"substance": "Ac-QWVREIAAGLRRAADDVNAQVER-NH2 [FS2]", "values": [{"measurement": "Ki", "setting": "Bfl-1 [2]", "result": 21.4, "unit": "nM"}, {"measurement": "Ki (M) Bfl-1", "setting": "Bfl-1 [2]; replicate 1", "result": "2.51e-08", "unit": "M"}, {"measurement": "Ki (M) Bfl-1", "setting": "Bfl-1 [2]; replicate 2", "result": "2.52e-08", "unit": "M"}, {"measurement": "Ki (M) Bfl-1", "setting": "Bfl-1 [2]; replicate 3", "result": "1.4e-08", "unit": "M"}]}]}
